Results from patent US5399487A, “6-peptidylamino-1-naphthalenesulfonamides useful as fluorogenic proteolytic enzyme substrates” (Haematologic Technologies, Inc., priority 1993, dated 1995).

Legend:
Assay type in all cases: biochemical
[1] = molecular target: T1, factor Xa (Homo sapiens, UniProt P00742); assay: Fluorogenic enzyme assay (Example 5)
Procedure, shortened: (§1)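 Fluorogenic substrate was diluted into 20 mM Tris, 150 mM NaCl, pH 7.4, enzyme added at room temperature (22° C), and fluorescence at 470 nm (excitation 352 nm) monitored to give initial rates. Rates were converted via a fluorophore standard curve and fitted for Km and kcat.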

[2] = molecular target: T1, factor Xa; assay: Kinetic constants of substrate hydrolysis, Chromozyme TH vs TosGPR-ANSN (Table A); details: 22° C., 0.02M TBS pH 7.4, 0.15M NaCl
Protocol: (§2) The 6-amino-1-naphthalenesulfonamide detecting group increased the specificity of the overall kinetic efficiency of substrate hydrolysis by thrombin relative to the rate of hydrolysis of the p-nitroanilide substrate chromozyme TH (American Diagnostics). Commercially available substrate (Chromozyme TH, TosGPR-p-NA) was compared to a substrate of the present invention, Tosgly-pro-arg-ANSN(i-C4 H9) (TosGPR-ANSNH(i-C4 H9)) in an assay performed at 22° C. in 0.02M TBS buffer at pH 7.4, containing 0.15M NaCl.

[3] = molecular target: T2, factor IIa (Homo sapiens, UniProt P00734); assay: as above; details: 22° C., 0.02M TBS pH 7.4, 0.15M NaCl
T2 construct: 0.5 nM human thrombin (IIa)
Protocol: as §2

[4] = molecular target: T3, factor VIIa (Homo sapiens, UniProt P08709); assay: Fluorogenic enzyme assay, relative hydrolysis rates (Table 8); details: at 100 hours; 10 nM enzyme, substrate 1 μM
T3 construct: directly measure the enzymatic activity of factor VIIa in the presence and absence of tissue factor and phospholipid
T3 sequence (P08709 213-466 limits assumed): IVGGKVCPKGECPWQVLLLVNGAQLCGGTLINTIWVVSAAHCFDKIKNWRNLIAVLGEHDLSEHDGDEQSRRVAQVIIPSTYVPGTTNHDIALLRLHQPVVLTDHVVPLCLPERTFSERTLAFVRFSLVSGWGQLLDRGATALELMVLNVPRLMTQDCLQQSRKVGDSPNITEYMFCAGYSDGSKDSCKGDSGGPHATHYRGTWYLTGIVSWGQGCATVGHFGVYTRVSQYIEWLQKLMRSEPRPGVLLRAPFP
T3 sequence (P08709 61-212 limits assumed): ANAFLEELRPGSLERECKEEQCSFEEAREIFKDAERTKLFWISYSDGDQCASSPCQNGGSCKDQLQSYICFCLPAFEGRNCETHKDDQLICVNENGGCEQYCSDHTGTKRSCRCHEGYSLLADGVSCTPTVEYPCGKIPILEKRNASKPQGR
Protocol: (§3) Enzyme assays (except factor VIIa assays, see below) were conducted in 20 mM Tris, 150 mM NaCl, pH 7.4 (TBS) at room temperature (22° C.). The final volume for all reaction mixtures was 2.0 ml. Fluorogenic substrates were dissolved in DMSO to a stock concentration of 10 mM. The 10 mM stock solution was diluted in TBS to the final working concentration prior to all assays. Enzyme was added to mixtures containing buffer components and substrate and the initial rate of substrate hydrolysis was measured as the change in fluorescent intensity over time, corresponding to the generation of the particular 6-amino-1-naphthalenesulfonamide fluorophore from the provided substrate. Quantitation of substrate hydrolysis was accomplished by establishing a standard curve from the appropriate fluorescent moiety. Fluorescence was monitored (continuously or discontinuously) using a Perkin Elmer fluorescence spectrophotometer, model MPF-44A, equipped with a standard chart recorder. The fluorophore was detected using monochrometers set at an excitation wavelength of 352 nm and an emission wavelength of 470 nm. Light scattering artifacts were minimized using a 399 nm cut off filter in the emission light beam.
Factor VII assays were conducted in 20 mM HEPES, 150 mM NaCl, 5 mM CaCl2, pH 7.4 (HBS) at 37° C. The final volume for all reactions was 1.6 ml. 6-(Mes-D-Leu-Gly-Arg)amino-1-(N,N-diethyl)naphthalenesulfonamide was dissolved in DMSO to a stock concentration of 10 mM. This 10 mM stock solution of was diluted in HBS to final working concentration prior to all assays. For reactions involving tissue factor (TF) and phospholipid vesicles, recombinant human tissue factor was solubilized in either 0.04% n-dodecyl octaethylene glycol (C12 E8) or 0.8% octyl glucoside. The TF/n-dodecyl octaethylene glycol was then relipidated into PCPS or PC vesicles by a 30 minute incubation step as described by Lawson & Mann, J. Biol. Chem. 266: 11317-11327 (1991). TF/octyl glucoside was relipidated into PC or PCPS vesicles by a thirty minute incubation step followed by exhaustive dialysis. The final concentration of tissue factor used in the studies described here ranged from 2 to 50 nM depending on the nature of the experiment.
Fifteen minutes prior to the start of all reactions factor VIIa was added to the reaction system. This incubation period was followed by the addition of substrate (1 μM to 400 μM) to the mixture to start the reaction. In experiments designed to determine kinetic constants of substrate hydrolysis, 50 nM rVIIa was used when no tissue factor was present in the reaction system, while 0.5 nM rVIIa was used when tissue factor was present in the reaction system. The rate of substrate hydrolysis was measured by change in fluorescence over time, which corresponded with the generation of the 6-amino-1-(N,N-diethyl)naphthalenesulfonamide from the provided substrate. The kinetic constants of 6-(Mes-D-Leu-Gly-Arg)amino-1-(N,N-diethyl)naphthalenesulfonamide hydrolysis as a function of factor VIIa/tissue factor complex assembly are shown in Table 10.

[5] = molecular target: T4, thrombin (IIa) (Homo sapiens, UniProt P00734); assay: Fluorogenic enzyme assay (Example 5)
T4 construct: 0.5 nM human thrombin (IIa)
Procedure, shortened: as §1

[6] = molecular target: urokinase (u-PA) (Homo sapiens, UniProt P00749); assay: Fluorogenic enzyme assay (Example 5); details: 100 nM enzyme, substrate 1 μM
[7] = molecular target: tissue plasminogen activator (t-PA) (Homo sapiens, UniProt P00750); assay: Fluorogenic enzyme assay (Example 5); details: 100 nM enzyme, substrate 1 μM
Procedure, shortened: as §1

[8] = molecular target: plasmin (Plm) (Homo sapiens, UniProt P00747); assay: Fluorogenic enzyme assay (Example 5); details: 10 nM enzyme, substrate 1 μM
Procedure, shortened: as §1

[9] = molecular target: activated protein C (APC) (Homo sapiens, UniProt P04070); assay: Fluorogenic enzyme assay (Example 5)
Procedure, shortened: as §1

[10] = molecular target: factor IXa (Homo sapiens, UniProt P00740); assay: Fluorogenic enzyme assay (Example 5)
Protocol: as §3
The kinetic constants of substrate hydrolysis were determined using the non-linear least squares regression analysis program ENZFITTER (Cambridge, UK). This program was used to iteratively fit initial rates of substrate hydrolysis to the Michaelis-Menten equation and the kinetic constants of substrate hydrolysis (Km) and (kcat) were calculated.

factor IXa, sequence (P00740 227-461 limits assumed): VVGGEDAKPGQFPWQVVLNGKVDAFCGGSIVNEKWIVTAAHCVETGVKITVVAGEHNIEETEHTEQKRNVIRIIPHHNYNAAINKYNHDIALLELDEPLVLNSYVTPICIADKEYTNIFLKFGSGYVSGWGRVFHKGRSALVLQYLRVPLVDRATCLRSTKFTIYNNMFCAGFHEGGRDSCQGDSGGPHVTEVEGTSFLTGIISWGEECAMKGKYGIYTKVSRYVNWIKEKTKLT
factor IXa, sequence (P00740 47-191 limits assumed): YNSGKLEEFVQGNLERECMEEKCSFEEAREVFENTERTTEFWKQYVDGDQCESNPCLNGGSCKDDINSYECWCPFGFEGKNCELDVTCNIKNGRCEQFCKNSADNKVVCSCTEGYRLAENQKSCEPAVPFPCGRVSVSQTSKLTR
T1 sequence (P00742 235-488 limits assumed): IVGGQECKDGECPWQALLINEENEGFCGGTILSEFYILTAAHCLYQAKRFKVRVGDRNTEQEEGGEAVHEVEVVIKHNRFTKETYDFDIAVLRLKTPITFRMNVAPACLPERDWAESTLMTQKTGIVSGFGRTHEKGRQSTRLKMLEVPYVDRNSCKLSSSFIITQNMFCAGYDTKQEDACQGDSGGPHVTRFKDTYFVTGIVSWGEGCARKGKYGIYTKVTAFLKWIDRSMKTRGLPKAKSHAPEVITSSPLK
T1 sequence (P00742 41-179 limits assumed): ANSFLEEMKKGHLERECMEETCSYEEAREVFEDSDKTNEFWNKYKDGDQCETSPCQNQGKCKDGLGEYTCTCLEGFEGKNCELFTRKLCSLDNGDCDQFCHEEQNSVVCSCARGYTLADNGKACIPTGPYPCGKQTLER
activated protein C (APC), sequence (P04070 212-461 limits assumed): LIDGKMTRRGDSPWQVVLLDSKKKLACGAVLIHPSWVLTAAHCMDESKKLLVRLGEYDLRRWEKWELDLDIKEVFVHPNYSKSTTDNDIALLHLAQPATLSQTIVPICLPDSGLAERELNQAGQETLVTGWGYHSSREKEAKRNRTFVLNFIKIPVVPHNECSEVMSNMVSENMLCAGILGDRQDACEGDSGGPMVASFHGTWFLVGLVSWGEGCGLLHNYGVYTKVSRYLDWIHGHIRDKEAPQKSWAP
activated protein C (APC), sequence (P04070 43-197 limits assumed): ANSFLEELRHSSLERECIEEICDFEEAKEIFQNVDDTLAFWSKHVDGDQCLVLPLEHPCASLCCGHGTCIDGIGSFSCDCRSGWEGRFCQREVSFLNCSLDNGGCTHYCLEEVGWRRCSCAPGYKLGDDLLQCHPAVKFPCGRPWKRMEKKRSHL
plasmin (Plm), sequence (P00747 581-810 limits assumed, species assumed): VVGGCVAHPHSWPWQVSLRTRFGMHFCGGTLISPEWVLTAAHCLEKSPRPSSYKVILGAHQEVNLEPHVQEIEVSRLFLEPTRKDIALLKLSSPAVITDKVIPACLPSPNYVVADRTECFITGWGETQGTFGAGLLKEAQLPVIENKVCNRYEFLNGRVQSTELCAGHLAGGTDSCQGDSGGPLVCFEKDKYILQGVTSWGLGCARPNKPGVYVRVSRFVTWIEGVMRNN
plasmin (Plm), sequence (P00747 97-580 limits assumed, species assumed): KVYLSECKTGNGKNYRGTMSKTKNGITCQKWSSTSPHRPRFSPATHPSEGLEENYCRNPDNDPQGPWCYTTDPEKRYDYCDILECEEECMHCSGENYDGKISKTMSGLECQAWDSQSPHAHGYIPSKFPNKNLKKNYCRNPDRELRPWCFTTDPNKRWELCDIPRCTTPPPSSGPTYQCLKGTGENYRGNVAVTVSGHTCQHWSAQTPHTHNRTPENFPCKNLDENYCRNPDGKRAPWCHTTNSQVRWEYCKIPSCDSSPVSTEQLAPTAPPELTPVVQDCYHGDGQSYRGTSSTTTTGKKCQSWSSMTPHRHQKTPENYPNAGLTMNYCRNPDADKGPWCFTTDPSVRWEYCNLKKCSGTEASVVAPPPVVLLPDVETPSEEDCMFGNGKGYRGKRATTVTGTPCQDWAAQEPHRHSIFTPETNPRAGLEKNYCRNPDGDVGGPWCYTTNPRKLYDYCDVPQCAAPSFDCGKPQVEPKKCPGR
tissue plasminogen activator (t-PA), sequence (P00750 36-562, species assumed): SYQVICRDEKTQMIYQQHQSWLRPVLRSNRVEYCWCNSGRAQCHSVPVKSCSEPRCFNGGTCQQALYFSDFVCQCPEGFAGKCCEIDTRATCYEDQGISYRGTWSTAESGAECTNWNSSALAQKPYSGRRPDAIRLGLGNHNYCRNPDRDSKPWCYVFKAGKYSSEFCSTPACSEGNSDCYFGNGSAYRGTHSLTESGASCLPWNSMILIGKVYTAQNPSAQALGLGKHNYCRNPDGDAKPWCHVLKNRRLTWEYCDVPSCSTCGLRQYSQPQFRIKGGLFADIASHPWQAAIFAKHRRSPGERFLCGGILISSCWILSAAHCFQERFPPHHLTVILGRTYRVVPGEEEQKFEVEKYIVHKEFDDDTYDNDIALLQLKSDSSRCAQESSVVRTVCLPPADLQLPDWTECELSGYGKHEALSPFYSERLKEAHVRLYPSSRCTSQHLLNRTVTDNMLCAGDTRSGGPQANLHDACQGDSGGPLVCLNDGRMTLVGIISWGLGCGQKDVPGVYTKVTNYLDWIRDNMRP

TIME TO 10% HYDROLYSIS (HOURS), Xa ([1]; 10 nM enzyme, substrate 1 μM): 0.05 h | Km ([1]; Table 9): 35.3 µM | kcat /Km, Xa ([1]; Table 9): 6800 s⁻¹ M⁻¹ | kcat, Xa ([1]; Table 9): 2.4 s⁻¹ | Kcat [2]: 11.2 s⁻¹ | Km [2]: 132 µM | Kcat [3]: 45.6 | Km [3]: 10.5 µM | TIME TO 10% HYDROLYSIS (HOURS), IIa ([5]; 1 nM enzyme (footnote c), substrate 1 μM): 0.01 h | Km ([5]; Table 9): 11 µM | kcat, IIa ([5]; Table 9): 52.6 s⁻¹ | TIME TO 10% HYDROLYSIS (HOURS), u-PA [6]: 0.01 h | TIME TO 10% HYDROLYSIS (HOURS), t-PA [7]: 2 h | TIME TO 10% HYDROLYSIS (HOURS), Plm [8]: 0.25 h | TIME TO 10% HYDROLYSIS (HOURS), APC ([9]; 10 nM enzyme, substrate 1 μM): 0.02 h | Km ([9]; Table 9): 800 µM | kcat /Km, APC ([9]; Table 9): 150000 s⁻¹ M⁻¹ | kcat, APC ([9]; Table 9): 120 s⁻¹ | TIME TO 10% HYDROLYSIS (HOURS), IXa ([10]; 100 nM enzyme, substrate 1 μM): 42 h | Km ([10]; Table 9): 123 µM | kcat, IXa ([10]; Table 9): 0.3 s⁻¹ | kcat/Km, IXa ([10]; Table 9): 2400 s⁻¹ M⁻¹
Compound: Cc1ccc(S(=O)(=O)NCC(=O)N2CCC[C@H]2C(=O)N[C@@H](CCCNC(=N)N)C(=O)Nc2ccc3c(S(=O)(=O)NCC(C)C)cccc3c2)cc1 [TosGPR-ANSNH(i-C4 H9)]
hydrolysis, VIIa (symbol d) [4]: d (hydrolysis at 100 hours was less than 10%.)
